These results are taken from patent US9833454B2, “Difluoromethoxy compound with low bioactivation potential for the reduction of beta-amyloid production” (BRISTOL-MYERS SQUIBB COMPANY, priority 2014, dated 2017).

For one series, the system named is Aβ42. The series is described as follows: Determination of Aβ42 IC50. It counts as cell-based. The procedure: (§1) Aβ42 IC50 was determined as described by Gillman, J. E. Starrett Jr., M. F. Parker, et al., “Discovery and evaluation of BMS-708163, a potent, and orally bioavailable gamma-secretase inhibitor”, ACS Medicinal Chemistry Letters, vol. 1., pp. 120-124, 2010. Mouse brain Aβ42 was determined as described by J. H. Toyn, X-A. Lin, M. W. Thompson et al., “Viable mouse gene ablations that robustly alter bran Abeta levels are are”, Biomed. Central Neuroscience, vol. 11, pp. 143, […].

For the next series, the system named is Mouse brain Aβ42. The experiment in a line: Mouse brain Aβ42. It counts as in vivo. The settings on record: for Mouse Aβ42: mouse brain; for B/P / Compound concentration in the Mouse Aβ42 study: mouse; for Compound concentration in the Mouse Aβ42 study: matrix not given. The procedure:
as §1

The target in series [1] is T1, CYP2C19 (Homo sapiens, UniProt P33261). The experiment in a line: Inhibition of recombinant CYP enzymes (rCYP), CYP2C19. The class given is in vitro ADME. Conditions: average of two experiments, read-out: rCYP IC50 2C19.
The target in a further series is CYP2D6 (Homo sapiens, UniProt P10635). The experiment in a line: Inhibition of recombinant CYP enzymes (rCYP), CYP2D6. It counts as in vitro ADME. Conditions: average of two experiments, read-out: rCYP IC50 2D6.
Series [2] is described as follows: In vitro metabolite elucidation in Aroclor-treated rat liver S9 (with NADPH and GSH). It counts as in vitro ADME. As to the method: The incubation mixtures (0.5 mL) contained N2-(3-(DIFLUOROMETHOXY)-4-(3-METHYL-1H-1,2,4-TRIAZOL-1-YL)PHENYL)-7-(4-FLUOROPHENYL)-N4,5,5-[…]-6,7-DIHYDRO-5H-CYCLOPENTA[D]PYRIMIDINE-2,4-DIAMINE (10 μM), liver S9 fractions from Aroclor 1254-treated rats (Molecular Toxicology, Boone, N.C.) (2 mg protein/mL), and glutathione (GSH, 5 mM) in a 100 mM potassium phosphate buffer (pH 7.4). The final concentration of acetonitrile in the S9 fraction incubations was 0.5% (v/v). The reactions were initiated by adding β-nicotinamide adenine dinucleotide 2′-phosphate reduced tetrasodium salt (NADPH, final concentration as 1 mM) and the incubations were carried out at 37° C. […] The filtrate was collected in a 96-well plate and evaporated to approximately 25% of the original volume under nitrogen gas, and the remaining aqueous phase was analyzed using high-performance liquid chromatography with ultraviolet (UV) spectroscopic and mass spectrometric detection (LC-UV/MS) under the conditions described in Section 1.2.
Bioanalytical methods were as follows: The LC-UV/MS system consisted of a Waters Acquity binary solvent manager, a sample manager, a photodiode array (PDA) detector, and a Xevo Q-TOF mass spectrometer (Waters Corporation, Milford, Mass.). […] Column effluent was analyzed in-line using a PDA detector followed by the mass spectrometer. […]

The next series has as its target adenosine 2A receptor (Homo sapiens, UniProt P29274). The series is described as follows: In vitro safety: off-target receptor binding and enzyme assays, A2A. Conditions: in vitro safety panel. The procedure:
A range of off-target receptor binding assays and enzyme assays were carried out using conventional methods available in the art.

Series [3] has as its target T1, CYP2C19. The series is described as follows: Inhibition of CYP enzymes in human liver microsomes (HLM), CYP2C19. In general terms: Microsomes from liver hold many membrane-bound enzymes, among them those of drug oxidation.

Broadly, the IC50 is the concentration needed to halve the response being measured.

T1 sequence (P33261 whole entry): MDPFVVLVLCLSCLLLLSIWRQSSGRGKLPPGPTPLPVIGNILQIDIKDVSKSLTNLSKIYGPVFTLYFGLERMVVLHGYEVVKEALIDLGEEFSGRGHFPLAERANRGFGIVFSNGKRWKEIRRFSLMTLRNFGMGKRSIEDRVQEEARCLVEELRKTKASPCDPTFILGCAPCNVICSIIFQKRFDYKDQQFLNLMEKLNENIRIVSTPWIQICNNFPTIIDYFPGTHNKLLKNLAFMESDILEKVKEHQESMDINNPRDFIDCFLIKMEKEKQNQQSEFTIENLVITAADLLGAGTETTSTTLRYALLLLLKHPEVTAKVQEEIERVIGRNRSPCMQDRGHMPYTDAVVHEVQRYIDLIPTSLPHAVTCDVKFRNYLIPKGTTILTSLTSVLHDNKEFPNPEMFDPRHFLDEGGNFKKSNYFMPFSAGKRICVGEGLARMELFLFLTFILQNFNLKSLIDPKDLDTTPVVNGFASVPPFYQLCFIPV
Chain of CYP2D6 (P10635 whole entry): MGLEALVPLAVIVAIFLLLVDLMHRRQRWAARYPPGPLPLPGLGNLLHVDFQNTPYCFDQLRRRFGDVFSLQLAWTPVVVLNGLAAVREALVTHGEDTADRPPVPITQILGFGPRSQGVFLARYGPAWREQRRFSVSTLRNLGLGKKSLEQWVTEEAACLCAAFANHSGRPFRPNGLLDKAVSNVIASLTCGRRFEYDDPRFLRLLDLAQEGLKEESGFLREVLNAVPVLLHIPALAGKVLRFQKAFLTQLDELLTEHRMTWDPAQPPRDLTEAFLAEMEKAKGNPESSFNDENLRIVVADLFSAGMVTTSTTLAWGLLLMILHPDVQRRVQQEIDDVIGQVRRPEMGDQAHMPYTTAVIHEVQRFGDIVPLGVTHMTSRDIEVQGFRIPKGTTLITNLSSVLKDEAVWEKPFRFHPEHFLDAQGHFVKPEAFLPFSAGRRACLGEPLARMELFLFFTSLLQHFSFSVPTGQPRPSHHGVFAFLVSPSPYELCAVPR
Chain of adenosine 2A receptor (P29274 whole entry): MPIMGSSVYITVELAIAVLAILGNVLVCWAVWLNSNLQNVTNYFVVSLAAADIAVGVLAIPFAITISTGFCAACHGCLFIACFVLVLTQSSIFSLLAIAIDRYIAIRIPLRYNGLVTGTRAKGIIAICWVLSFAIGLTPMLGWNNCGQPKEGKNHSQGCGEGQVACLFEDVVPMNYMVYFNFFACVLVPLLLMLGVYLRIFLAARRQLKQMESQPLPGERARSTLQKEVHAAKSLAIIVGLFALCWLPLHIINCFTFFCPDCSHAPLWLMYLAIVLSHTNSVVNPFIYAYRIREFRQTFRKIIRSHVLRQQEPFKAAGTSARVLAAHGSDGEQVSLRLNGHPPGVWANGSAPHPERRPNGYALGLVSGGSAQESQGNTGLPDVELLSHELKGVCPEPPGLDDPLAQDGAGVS

For `CNc1nc(Nc2ccc(-n3cnc(C)n3)c(OC(F)F)c2)nc2c1C(C)(C)CC2c1ccc(F)cc1` (single isomer, unassigned) [Enantiomer 1, N2-(3-(difluoromethoxy)-4-(3-methyl-1H-1,2,4-triazol-1-yl)phenyl)-7-(4-fluorophenyl)-N4,5,5-trimethyl-6,7-dihydro-5H-cyclopenta[d]pyrimidine-2,4-diamine], the IC50 was 1.2 nM in the series on Aβ42; 960 nM at CYP2C19 [1]; greater than 20000 nM at CYP2D6; 2000 nM at adenosine 2A receptor; 22600 nM at CYP2C19 [3] (IC50-0 min 2C19, HLM, 0 min preincubation); 12200 nM against CYP2C19 [3] (IC50-30 min 2C19, HLM, 30 min preincubation with NADPH). The “Mouse Aβ42” value in the series with Mouse brain Aβ42 (8 mpk) was 68%; in the series on Mouse brain Aβ42 (30 mpk), 29%. The B/P worked out at 0.7 in the series with Mouse brain Aβ42 (8 mpk) and 1.4 with Mouse brain Aβ42 (30 mpk). For the same molecule, the “Compound concentration in the Mouse Aβ42 study” value in the series with Mouse brain Aβ42 (8 mpk) came to 391 nM; in the series on Mouse brain Aβ42 (30 mpk), 1334 nM. Moreover, the “Estimated Percent (%) of The Original Parent Level (P) Based on UV Peak Areas” value in series [2] (10 μM, 30-minute incubation with NADPH and GSH, UV 300 nm) is given as 76%. Besides, the “GSH Adducts” value in series [2] (NADPH and GSH) was “No GSH conjugates were detected”. On CYP2C19 [3] (HLM, IC50 shift 0 vs 30 min preincubation (TDI ratio)), the “IC50 Ratio 2C19” value is on record as 1.9.
